From patent publication US9758524B2, “4-imidazopyridazin-1-yl-benzamides as Btk inhibitors” (Merck Sharp & Dohme B.V., priority 2011, dated 2017)
Where two headings read alike, the source gives them in different places.

How the values were obtained:
Src enzyme = Src enzyme (Homo sapiens (Human), UniProt P12931); experiment: Src enzyme activity (IMAP fluorescence polarization assay); details: read-out: EC50 Src activity values; IMAP, 60 min pre-incubation, 4 μM ATP
FynT enzyme = FynT enzyme (Homo sapiens (Human), UniProt P06241); experiment: FynT enzyme activity (IMAP fluorescence polarization assay); type: biochemical; details: 60 min pre-incubation, 0.2 μM ATP
FynT enzyme, sequence (P06241 other isoform, or with tags, fused parts or gaps): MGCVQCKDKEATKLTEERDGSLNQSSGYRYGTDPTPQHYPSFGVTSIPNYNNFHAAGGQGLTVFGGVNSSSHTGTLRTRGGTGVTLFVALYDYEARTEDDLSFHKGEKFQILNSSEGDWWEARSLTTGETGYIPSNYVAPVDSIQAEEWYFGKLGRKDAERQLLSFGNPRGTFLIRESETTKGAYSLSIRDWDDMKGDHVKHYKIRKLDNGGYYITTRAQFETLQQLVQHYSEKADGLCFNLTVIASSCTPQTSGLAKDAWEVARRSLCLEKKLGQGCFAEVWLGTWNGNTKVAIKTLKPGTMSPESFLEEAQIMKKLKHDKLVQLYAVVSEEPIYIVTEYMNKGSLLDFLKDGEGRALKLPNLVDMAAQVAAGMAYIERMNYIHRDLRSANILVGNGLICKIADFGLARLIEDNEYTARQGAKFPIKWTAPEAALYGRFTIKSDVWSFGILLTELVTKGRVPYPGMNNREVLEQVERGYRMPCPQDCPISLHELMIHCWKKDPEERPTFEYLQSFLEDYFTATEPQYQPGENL
Outline: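 Human FynT pre-incubated with compounds 60 min at room temperature, then reacted 2 h at room temperature with fluorescein-labelled p34cdc2 peptide (100 nM final). Stopped with IMAP binding solution; fluorescence polarization read after 60 min. Activity as % of ±ATP control difference; EC50 by curve fitting.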

Lck enzyme = Lck enzyme (Homo sapiens (Human), UniProt P06239); experiment: Lck enzyme activity (IMAP fluorescence polarization assay)
Lck enzyme, sequence (P06239 whole entry): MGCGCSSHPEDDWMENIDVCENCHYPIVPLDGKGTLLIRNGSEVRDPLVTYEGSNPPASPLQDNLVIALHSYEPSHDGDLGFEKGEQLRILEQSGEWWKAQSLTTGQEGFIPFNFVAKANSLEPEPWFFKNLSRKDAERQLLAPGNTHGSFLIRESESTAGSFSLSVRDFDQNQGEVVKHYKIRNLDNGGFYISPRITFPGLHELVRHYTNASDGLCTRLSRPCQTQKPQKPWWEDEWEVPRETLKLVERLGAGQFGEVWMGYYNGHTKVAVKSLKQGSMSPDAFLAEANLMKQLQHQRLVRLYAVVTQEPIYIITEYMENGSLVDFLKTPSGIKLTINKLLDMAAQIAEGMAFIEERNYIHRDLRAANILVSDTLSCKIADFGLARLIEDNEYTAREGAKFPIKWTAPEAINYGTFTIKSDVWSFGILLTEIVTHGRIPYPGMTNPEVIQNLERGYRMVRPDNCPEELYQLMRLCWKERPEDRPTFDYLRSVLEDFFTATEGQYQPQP

Btk enzyme (His-Btk) = Btk enzyme (His-Btk) (Homo sapiens (Human), UniProt Q06187); experiment: Btk enzyme activity (IMAP fluorescence polarization assay); details: read-out: EC50 Btk activity values; IMAP, 60 min pre-incubation, 5 μM ATP; bin bound in nM
Btk enzyme (His-Btk), sequence (Q06187 whole entry): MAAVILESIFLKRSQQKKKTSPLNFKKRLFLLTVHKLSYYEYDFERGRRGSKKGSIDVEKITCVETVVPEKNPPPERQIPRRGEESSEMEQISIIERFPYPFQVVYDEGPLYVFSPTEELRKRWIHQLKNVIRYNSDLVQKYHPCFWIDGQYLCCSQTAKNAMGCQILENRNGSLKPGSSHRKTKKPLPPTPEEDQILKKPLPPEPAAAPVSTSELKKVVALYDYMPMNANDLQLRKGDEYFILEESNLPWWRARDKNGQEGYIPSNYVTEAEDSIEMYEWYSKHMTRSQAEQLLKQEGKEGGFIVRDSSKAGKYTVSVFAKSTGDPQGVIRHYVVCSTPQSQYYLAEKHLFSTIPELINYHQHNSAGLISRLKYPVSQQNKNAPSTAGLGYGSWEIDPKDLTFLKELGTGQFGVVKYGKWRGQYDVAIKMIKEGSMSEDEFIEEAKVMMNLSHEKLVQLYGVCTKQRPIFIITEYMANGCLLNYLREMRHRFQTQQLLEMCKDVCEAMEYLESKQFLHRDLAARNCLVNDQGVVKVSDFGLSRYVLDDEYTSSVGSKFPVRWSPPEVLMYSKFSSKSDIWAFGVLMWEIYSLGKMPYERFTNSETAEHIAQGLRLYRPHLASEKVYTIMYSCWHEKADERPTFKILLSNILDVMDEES

Lyn enzyme = Lyn enzyme (Homo sapiens (Human), UniProt P07948); experiment: Lyn enzyme activity (IMAP fluorescence polarization assay); details: for EC50 Lyn activity values: bin bound in μM
Lyn enzyme, sequence (P07948 whole entry): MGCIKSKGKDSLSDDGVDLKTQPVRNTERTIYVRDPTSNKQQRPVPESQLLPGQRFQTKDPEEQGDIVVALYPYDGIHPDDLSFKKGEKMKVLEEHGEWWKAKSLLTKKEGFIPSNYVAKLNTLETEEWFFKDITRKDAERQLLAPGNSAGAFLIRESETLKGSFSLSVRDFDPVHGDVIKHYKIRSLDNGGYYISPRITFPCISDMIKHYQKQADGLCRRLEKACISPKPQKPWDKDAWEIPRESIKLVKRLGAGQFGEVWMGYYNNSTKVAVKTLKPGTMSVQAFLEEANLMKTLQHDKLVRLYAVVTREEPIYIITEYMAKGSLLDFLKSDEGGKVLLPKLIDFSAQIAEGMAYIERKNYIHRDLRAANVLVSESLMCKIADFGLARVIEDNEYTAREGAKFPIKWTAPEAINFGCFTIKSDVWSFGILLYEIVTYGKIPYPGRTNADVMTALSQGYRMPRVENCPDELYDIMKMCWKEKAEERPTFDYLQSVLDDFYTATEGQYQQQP

[1] = read-out: EC50 Lck activity values, IMAP, 60 min pre-incubation, 6 μM ATP, bin bound in μM
[2] = read-out: EC50 Lyn activity values, 60 min pre-incubation, 2 μM ATP, bin bound in μM
[3] = IMAP, 60 min pre-incubation, 6 μM ATP, bin bound in μM
[4] = 60 min pre-incubation, 2 μM ATP
[5] = EC50 Lyn activity values, 60 min pre-incubation, 2 μM ATP, bin bound in nM

Src enzyme, sequence (P12931 whole entry, looked up): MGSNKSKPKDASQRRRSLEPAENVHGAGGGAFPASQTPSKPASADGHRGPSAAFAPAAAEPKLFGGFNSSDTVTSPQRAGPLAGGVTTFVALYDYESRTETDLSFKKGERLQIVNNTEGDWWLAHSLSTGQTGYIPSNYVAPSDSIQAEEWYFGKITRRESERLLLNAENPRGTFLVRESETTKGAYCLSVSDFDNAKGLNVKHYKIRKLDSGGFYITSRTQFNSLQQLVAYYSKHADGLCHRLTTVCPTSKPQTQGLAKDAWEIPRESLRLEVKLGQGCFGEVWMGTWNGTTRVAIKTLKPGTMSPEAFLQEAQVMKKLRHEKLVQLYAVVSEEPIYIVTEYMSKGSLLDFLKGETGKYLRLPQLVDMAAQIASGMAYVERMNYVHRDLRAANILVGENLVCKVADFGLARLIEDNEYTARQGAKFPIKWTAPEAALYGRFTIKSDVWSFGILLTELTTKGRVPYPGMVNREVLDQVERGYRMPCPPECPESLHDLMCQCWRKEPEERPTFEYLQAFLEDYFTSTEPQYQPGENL

Row | EC50 (Src enzyme) | EC50 (FynT enzyme) | EC50 (Lck enzyme; [1]) | EC50 (Btk enzyme (His-Btk)) | EC50 (Lyn enzyme; [2]) | EC50 (Lck enzyme) | EC50 Lck activity values (Lck enzyme; [3]) | EC50 Lyn activity values (Lyn enzyme; [4]) | EC50 (Lyn enzyme; [5]) | Structure (SMILES)
1 | ≥ 1000 nM | ≥ 1000 nM | ≥ 1 µM | < 10 nM | ≥ 1 µM | – | – | – | – | COC/C=C/C(=O)N1CCOC[C@H]1c1nc(-c2ccc(C(=O)Nc3ccccn3)cc2)c2c(N)nccn12 [Example 120, (R,E)-4-(8-amino-3-(4-(4-methoxybut-2-enoyl)morpholin-3-yl)imidazo[1,5-a]pyrazin-1-yl)-N-(pyridin-2-yl)benzamide]
2 | ≥ 1000 nM | ≥ 1000 nM | ≥ 1 µM | < 10 nM | ≥ 1 µM | – | – | – | – | CCCc1ccnc(NC(=O)c2ccc(-c3nc([C@@H]4CCCCN4C(=O)/C=C/COC)n4ccnc(N)c34)cc2)c1 [Example 121, (S,E)-4-(8-amino-3-(1-(4-methoxybut-2-enoyl)piperidin-2-yl)imidazo[1,5-a]pyrazin-1-yl)-N-(4-propylpyridin-2-yl)benzamide]
3 | ≥ 1000 nM | ≥ 1000 nM | – | < 10 nM | ≥ 1 µM | 0.1 to 1 µM | <1 µM | – | – | C=CC(=O)N1CCC[C@H]1c1nc(-c2ccc(C(=O)Nc3cc(C#N)ccn3)cc2)c2c(N)nccn12 [Example 122, (S)-4-(3-(1-acryloylpyrrolidin-2-yl)-8-aminoimidazo[1,5-a]pyrazin-1-yl)-N-(4-cyanopyridin-2-yl)benzamide]
4 | ≥ 1000 nM | ≥ 1000 nM | ≥ 1 µM | < 10 nM | ≥ 1 µM | – | – | – | – | CC#CC(=O)N1CCC[C@H]1c1nc(-c2ccc(C(=O)Nc3cc(OC)ccn3)cc2)c2c(N)nccn12 [Example 123, (S)-4-(8-amino-3-(1-but-2-ynoylpyrrolidin-2-yl)imidazo[1,5-a]pyrazin-1-yl)-N-(4-methoxypyridin-2-yl)benzamide]
5 | ≥ 1000 nM | ≥ 1000 nM | – | < 10 nM | – | 0.1 to 1 µM | <1 µM | <1 µM | 0.1 to 1 µM | C=CC(=O)N1CCC[C@H]1c1nc(-c2ccc(C(=O)Nc3cc(C)ccn3)cc2)c2c(N)nccn12 [Example 124, (S)-4-(3-(1-acryloylpyrrolidin-2-yl)-8-aminoimidazo[1,5-a]pyrazin-1-yl)-N-(4-methylpyridin-2-yl)benzamide]
6 | ≥ 1000 nM | ≥ 1000 nM | – | < 10 nM | – | 0.1 to 1 µM | <1 µM | <1 µM | 0.1 to 1 µM | C=CC(=O)N1CCC[C@H]1c1nc(-c2ccc(C(=O)Nc3cc(CCC)ccn3)cc2)c2c(N)nccn12 [Example 125, (S)-4-(3-(1-acryloylpyrrolidin-2-yl)-8-aminoimidazo[1,5-a]pyrazin-1-yl)-N-(4-propylpyridin-2-yl)benzamide]
7 | ≥ 1000 nM | ≥ 1000 nM | – | < 10 nM | – | 0.1 to 1 µM | <1 µM | <1 µM | 0.1 to 1 µM | C=CC(=O)N1CCC[C@H]1c1nc(-c2ccc(C(=O)Nc3cc(CC)ccn3)cc2)c2c(N)nccn12 [Example 126, (S)-4-(3-(1-acryloylpyrrolidin-2-yl)-8-aminoimidazo[1,5-a]pyrazin-1-yl)-N-(4-ethylpyridin-2-yl)benzamide]
8 | ≥ 1000 nM | ≥ 1000 nM | ≥ 1 µM | < 10 nM | ≥ 1 µM | – | – | – | – | COC/C=C/C(=O)N1CCC[C@H]1c1nc(-c2ccc(C(=O)Nc3cc(C(F)(F)F)ccn3)cc2)c2c(N)nccn12 [Example 128, (S,E)-4-(8-amino-3-(1-(4-methoxybut-2-enoyl)pyrrolidin-2-yl)imidazo[1,5-a]pyrazin-1-yl)-N-(4-(trifluoromethyl)pyridin-2-yl)benzamide]
9 | ≥ 1000 nM | ≥ 1000 nM | ≥ 1 µM | < 10 nM | ≥ 1 µM | – | – | – | – | Cc1ccnc(NC(=O)c2ccc(-c3nc([C@@H]4CCCN4C(=O)c4ccnc(Cl)n4)n4ccnc(N)c34)cc2)c1 [Example 129, (S)-4-(8-amino-3-(1-(2-chloropyrimidine-4-carbonyl)pyrrolidin-2-yl)imidazo[1,5-a]pyrazin-1-yl)-N-(4-methylpyridin-2-yl)benzamide]
10 | ≥ 1000 nM | ≥ 1000 nM | ≥ 1 µM | < 10 nM | ≥ 1 µM | – | – | – | – | CC#CC(=O)N1CCC[C@H]1c1nc(-c2ccc(C(=O)Nc3cc(C#N)ccn3)cc2)c2c(N)nccn12 [Example 130, (S)-4-(8-amino-3-(1-but-2-ynoylpyrrolidin-2-yl)imidazo[1,5-a]pyrazin-1-yl)-N-(4-cyanopyridin-2-yl)benzamide]
11 | ≥ 1000 nM | ≥ 1000 nM | ≥ 1 µM | < 10 nM | ≥ 1 µM | – | – | – | – | CC#CC(=O)N1CCC[C@H]1c1nc(-c2ccc(C(=O)Nc3cc(CC)ccn3)cc2)c2c(N)nccn12 [Example 131, (S)-4-(8-amino-3-(1-but-2-ynoylpyrrolidin-2-yl)imidazo[1,5-a]pyrazin-1-yl)-N-(4-ethylpyridin-2-yl)benzamide]
12 | ≥ 1000 nM | ≥ 1000 nM | – | < 10 nM | ≥ 1 µM | 0.1 to 1 µM | <1 µM | – | – | CC#CC(=O)N1CCC[C@H]1c1nc(-c2ccc(C(=O)Nc3cc(-c4ccccc4)ccn3)cc2)c2c(N)nccn12 [Example 132, (S)-4-(8-amino-3-(1-but-2-ynoylpyrrolidin-2-yl)imidazo[1,5-a]pyrazin-1-yl)-N-(4-phenylpyridin-2-yl)benzamide]
13 | ≥ 1000 nM | ≥ 1000 nM | – | < 10 nM | – | 0.1 to 1 µM | <1 µM | <1 µM | 0.1 to 1 µM | C=CC(=O)N1CCC[C@H]1c1nc(-c2ccc(C(=O)Nc3cc(-c4ccccc4)ccn3)cc2)c2c(N)nccn12 [Example 133, (S)-4-(3-(1-acryloylpyrrolidin-2-yl)-8-aminoimidazo[1,5-a]pyrazin-1-yl)-N-(4-phenylpyridin-2-yl)benzamide]
